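A five-concentration, 48-hour dose response in 96-well plates underlies each endpoint, interpolated linearly between surrounding concentrations. TGI: total growth inhibition.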
Experiments:
Assay in all cases: DTP human tumour cell line panel, 48 h
[1] = test system: K-562 leukemia
[2] = test system: OVCAR-8 ovarian
[3] = test system: U251 CNS
[4] = test system: SNB-75 CNS
[5] = test system: HOP-92 NSCLC
[6] = test system: XF 498 CNS
[7] = test system: HCT-116 colon
[8] = test system: COLO 205 colon
[9] = test system: SF-268 CNS
[10] = test system: OVCAR-4 ovarian
[11] = test system: HL-60(TB) leukemia
[12] = test system: CCRF-CEM leukemia
[13] = test system: A549 NSCLC
[14] = test system: SK-OV-3 ovarian
[15] = test system: EKVX NSCLC
[16] = test system: HOP-18 NSCLC
[17] = test system: RPMI-8226 leukemia
[18] = test system: SF-295 CNS
[19] = test system: MALME-3M melanoma
[20] = test system: SNB-19 CNS
[21] = test system: SNB-78 CNS
[22] = test system: MOLT-4 leukemia
[23] = test system: SK-MEL-28 melanoma
[24] = test system: OVCAR-3 ovarian
[25] = test system: DMS 273 small cell lung
[26] = test system: 786-0 renal
[27] = test system: NCI-H23 lung
[28] = test system: ACHN renal
[29] = test system: DMS 114 small cell lung
[30] = test system: M14 melanoma
[31] = test system: UO-31 renal
[32] = test system: SF-539 CNS
[33] = test system: HT29 colon
[34] = test system: SN12C renal
[35] = test system: UACC-257 melanoma
[36] = test system: KM20L2 colon
[37] = test system: OVCAR-5 ovarian
[38] = test system: IGROV1 ovarian
[39] = test system: LOX IMVI melanoma
[40] = test system: M19-MEL melanoma
[41] = test system: KM12 colon
[42] = test system: SW-620 colon
[43] = test system: TK-10 renal
[44] = test system: SR leukemia
[45] = test system: DLD-1 colon
[46] = test system: HOP-62 NSCLC
[47] = test system: HCT-15 colon
[48] = test system: SK-MEL-2 melanoma
[49] = test system: CAKI-1 renal
[50] = test system: UACC-62 melanoma
[51] = test system: A498 renal
[52] = test system: SK-MEL-5 melanoma
[53] = test system: RXF 393 renal
[54] = test system: NCI/ADR-RES ovarian
[55] = test system: HCC-2998 colon
[56] = test system: MDA-N
[57] = test system: NCI-H522 lung
[58] = test system: PC-3 prostate
[59] = test system: MDA-MB-231 breast
[60] = test system: NCI-H226 lung
[61] = test system: T-47D breast
[62] = test system: BT-549 breast
[63] = test system: MCF7 breast
[64] = test system: DU-145 prostate
[65] = test system: MDA-MB-435
[66] = test system: NCI-H460 lung
[67] = test system: HS 578T breast
[68] = test system: LXFL 529 NSCLC

COc1ccc(CSc2nc3ccccc3nc2-c2cccs2)cc1
TGI [1]: > 100 µM
TGI [2]: > 100 µM
TGI [3]: > 100 µM
TGI [4]: > 100 µM
TGI [5]: > 100 µM
TGI [6]: > 100 µM
TGI [7]: > 100 µM
TGI [8]: > 100 µM
TGI [9]: > 100 µM
TGI [10]: > 100 µM
TGI [11]: > 100 µM
TGI [12]: 76.3 µM
TGI [13]: > 100 µM
TGI [14]: > 100 µM
TGI [15]: > 100 µM
TGI [16]: > 100 µM
TGI [17]: > 100 µM
TGI [18]: > 100 µM
TGI [19]: > 100 µM
TGI [20]: > 100 µM
TGI [21]: > 100 µM
TGI [22]: > 100 µM
TGI [23]: > 100 µM
TGI [24]: > 100 µM
TGI [25]: > 100 µM
TGI [26]: > 100 µM
TGI [27]: > 100 µM
TGI [28]: > 100 µM
TGI [29]: > 100 µM
TGI [30]: > 100 µM
TGI [31]: > 100 µM
TGI [32]: > 100 µM
TGI [33]: > 100 µM
TGI [34]: > 100 µM
TGI [35]: > 100 µM

CC(CCc1ccc2c(c1)c(=N)c1ccc(N)cc1n2O)CC(C)(C)C (stereo not drawn)
TGI [1]: 3.13 µM
TGI [3]: 2.67 µM
TGI [36]: 2.74 µM
TGI [6]: 2.45 µM
TGI [37]: 2.93 µM
TGI [7]: 4.03 µM
TGI [8]: 2.79 µM
TGI [9]: 4.23 µM
TGI [38]: 2.95 µM
TGI [11]: 3.42 µM
TGI [12]: 2.69 µM
TGI [13]: 3.22 µM
TGI [39]: 3.07 µM
TGI [15]: 3.04 µM
TGI [40]: 2.98 µM
TGI [16]: 3.35 µM
TGI [17]: 4.64 µM
TGI [41]: 3.51 µM
TGI [42]: 3.07 µM
TGI [18]: 7.29 µM
TGI [19]: 3.37 µM
TGI [43]: 3.29 µM
TGI [44]: 4.03 µM
TGI [45]: 3.5 µM
TGI [21]: 4.32 µM
TGI [23]: 3.58 µM
TGI [46]: 3.31 µM
TGI [24]: 3.19 µM
TGI [25]: 3.85 µM
TGI [47]: 17.9 µM
TGI [26]: 2.82 µM
TGI [48]: 3.31 µM
TGI [28]: 3.14 µM
TGI [49]: 3.19 µM
TGI [50]: 2.79 µM
TGI [51]: 3.51 µM
TGI [30]: 3.18 µM
TGI [31]: 34 µM
TGI [52]: 3.01 µM
TGI [34]: 3.22 µM
TGI [35]: 3.63 µM
TGI [53]: 4.43 µM

O=C(O)c1cc2c(s1)C(=O)c1sccc1C2=O
TGI [1]: 15.2 µM
TGI [2]: 14.6 µM
TGI [54]: 18.5 µM
TGI [3]: 15.6 µM
TGI [4]: 3.37 µM
TGI [5]: 30.1 µM
TGI [36]: 35.3 µM
TGI [6]: 35.4 µM
TGI [37]: 23.4 µM
TGI [55]: 33.6 µM
TGI [7]: 4.81 µM
TGI [8]: 32.7 µM
TGI [9]: 16.4 µM
TGI [56]: 1.68 µM
TGI [10]: 16.1 µM
TGI [38]: 30.9 µM
TGI [57]: 8.58 µM
TGI [11]: 19 µM
TGI [58]: 43.5 µM
TGI [12]: 33.1 µM
TGI [13]: 8.39 µM
TGI [59]: 38.4 µM
TGI [39]: 3.04 µM
TGI [14]: 41.4 µM
TGI [60]: 37.1 µM
TGI [61]: 17.3 µM
TGI [15]: 30.5 µM
TGI [40]: 2.49 µM
TGI [16]: 17.7 µM
TGI [17]: 41.7 µM
TGI [41]: 21.1 µM
TGI [42]: 5.28 µM
TGI [18]: 5.25 µM
TGI [19]: 0.806 µM
TGI [62]: 3.78 µM
TGI [63]: 7.91 µM
TGI [20]: 17.1 µM
TGI [43]: 36 µM
TGI [44]: 8.38 µM
TGI [45]: 27.7 µM
TGI [21]: 0.909 µM
TGI [22]: 28.6 µM
TGI [23]: 3.45 µM
TGI [46]: 11.6 µM
TGI [64]: 5.85 µM
TGI [24]: 15.6 µM
TGI [25]: 22.8 µM
TGI [47]: 11.9 µM
TGI [26]: 18.1 µM
TGI [27]: 4.71 µM
TGI [48]: 6.03 µM
TGI [65]: 1.68 µM
TGI [28]: 25.1 µM
TGI [49]: 31.8 µM
TGI [50]: 4.56 µM
TGI [51]: 31.2 µM
TGI [29]: 11.2 µM
TGI [30]: 2.91 µM
TGI [31]: 16 µM
TGI [32]: 3.85 µM
TGI [66]: 33 µM
TGI [52]: 3.32 µM
TGI [33]: 19 µM
TGI [34]: 6.85 µM
TGI [35]: 6.27 µM
TGI [67]: 5.91 µM
TGI [53]: 16.9 µM

FC(F)(F)C12C34C=CC5(CCC6(C=CC1(CC3)O6)C52C(F)(F)F)O4 (stereo not drawn)
TGI [1]: > 100 µM
TGI [2]: > 100 µM
TGI [3]: > 100 µM
TGI [5]: > 100 µM
TGI [36]: > 100 µM
TGI [6]: > 100 µM
TGI [37]: > 100 µM
TGI [55]: > 100 µM
TGI [7]: > 100 µM
TGI [8]: > 100 µM
TGI [9]: > 100 µM
TGI [10]: > 100 µM
TGI [38]: > 100 µM
TGI [57]: > 100 µM
TGI [11]: > 100 µM
TGI [12]: > 100 µM
TGI [13]: > 100 µM
TGI [39]: > 100 µM
TGI [14]: > 100 µM
TGI [60]: > 100 µM
TGI [15]: > 100 µM
TGI [40]: > 100 µM
TGI [16]: > 100 µM
TGI [41]: > 100 µM
TGI [42]: > 100 µM
TGI [18]: > 100 µM
TGI [19]: > 100 µM
TGI [68]: > 100 µM
TGI [20]: > 100 µM
TGI [43]: > 100 µM
TGI [44]: > 100 µM
TGI [21]: > 100 µM
TGI [22]: > 100 µM
TGI [23]: > 100 µM
TGI [46]: > 100 µM
TGI [24]: > 100 µM
TGI [25]: > 100 µM
TGI [26]: > 100 µM
TGI [27]: > 100 µM
TGI [48]: > 100 µM
TGI [28]: > 100 µM
TGI [49]: > 100 µM
TGI [51]: > 100 µM
TGI [32]: > 100 µM
TGI [66]: > 100 µM
TGI [33]: > 100 µM
TGI [34]: > 100 µM
TGI [35]: > 100 µM
TGI [53]: > 100 µM

Source: PubChem BioAssay (NCI)
